Measured values from the supplement of paper PMC4862054.
Where “and” joins values, the source holds several entries; their conditions need not be identical. Identical values can stand only once.

Legend:
Details in all cases: incubation time: 72 h
[1] = test system: MDA-MB-453; assay: drug sensitivity score (DSS), CellTiter-Blue viability (DSS (AUC-based score)); higher = stronger viability inhibition; extreme values may be limits of the assay
Method: (§1)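 DSRT with the CellTiter-Blue (resazurin reduction) viability readout, fluorescence 560/590 nm, 72 h incubation. Plates were normalised to DMSO and benzethonium chloride controls. DSS is computed from the area under the fitted dose-response curve (5 or 9 concentrations).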

[2] = test system: SK-BR-3; assay: as above
Method: as §1

[3] = test system: BT-474; assay: as above
Method: as §1

[4] = test system: MDA-MB-231; assay: as above
Method: as §1

[5] = test system: MDA-MB-436; assay: as above
Method: as §1

[6] = test system: HCC1937; assay: as above
Method: as §1

[7] = test system: CAL-148; assay: as above
Method: as §1

[8] = test system: CAL-51; assay: as above
Method: as §1

[9] = test system: MDA-MB-468; assay: as above
Method: as §1

[10] = test system: HCC1143; assay: as above
Method: as §1

[11] = test system: Hs578T; assay: as above
Method: as §1

[12] = test system: DU-4475; assay: as above
Method: as §1

[13] = test system: CAL-120; assay: as above
Method: as §1

[14] = test system: MFM-223; assay: as above
Method: as §1

[15] = test system: BT-549; assay: as above
Method: as §1

[16] = test system: CAL-85-1; assay: as above
Method: as §1

[17] = test system: HDQ-P1; assay: as above
Method: as §1

[18] = test system: HCC1599; assay: as above
Method: as §1

[19] = test system: MDA-MB-231; assay: normalised response (% of control), CellTox Green; higher = less cell death (100 = DMSO, 0 = benzethonium chloride kill control)
Outline: (§2)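 The table gives the normalised signal for a single concentration in each entry. Breast cancer cell lines were seeded (20 µl suspension) into 384-well plates holding compound at 5 concentrations in 10-fold steps over a compound-specific 10,000-fold range and incubated 72 h, then read for CellTox Green fluorescence (485/520 nm) and CellTiter-Glo luminescence. Normalisation on each plate used 0.1 % DMSO (100) and a positive kill control (0).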

[20] = test system: MDA-MB-436; assay: as above
Outline: as §2

[21] = test system: MCF-10A; assay: as above
Outline: as §2

[22] = test system: CAL-148; assay: as above
Outline: as §2

[23] = test system: CAL-51; assay: as above
Outline: as §2

[24] = test system: MDA-MB-468; assay: as above
Outline: as §2

[25] = test system: Hs578T; assay: as above
Outline: as §2

[26] = test system: CAL-120; assay: as above
Outline: as §2

[27] = test system: CAL-85-1; assay: as above
Outline: as §2

SMILES | drug sensitivity score [1] | drug sensitivity score [2] | drug sensitivity score [3] | drug sensitivity score [4] | drug sensitivity score [5] | drug sensitivity score [6] | drug sensitivity score [7] | drug sensitivity score [8] | drug sensitivity score [9] | drug sensitivity score [10] | drug sensitivity score [11] | drug sensitivity score [12] | drug sensitivity score [13] | drug sensitivity score [14] | drug sensitivity score [15] | drug sensitivity score [16] | drug sensitivity score [17] | drug sensitivity score [18] | normalised response [19] [%] | normalised response [20] [%] | normalised response [21] [%] | normalised response [22] [%] | normalised response [23] [%] | normalised response [24] [%] | normalised response [25] [%] | normalised response [26] [%] | normalised response [27] [%]
CNC(=O)c1cc(Oc2ccc(NC(=O)Nc3ccc(Cl)c(C(F)(F)F)c3)c(F)c2)ccn1 [Regorafenib] | 5.4 | 0 | 1.39 | 8.54 | 0 | 3.4 | 0 | 3.37 | 1.71 | 9.31 | 2.98 | 3.68 | 1.05 | 9.2 | 1.64 | 0 | 0 | 1.06 | – | – | – | – | – | – | – | – | –
CC(C)C[C@@H](C(=O)N[C@H](C(=O)OC1CCCC1)c1ccccc1)[C@H](O)C(=O)NO [Tosedostat] | 15.8 | 0 | 0 | 12.5 | 1.84 | 14.9 | 7.49 | 4.1 | 13.2 | 7.29 | 2.31 | 13.4 | 12.7 | 8.63 | 11.3 | 4.66 | 4.23 | 0 | – | – | – | – | – | – | – | – | –
COc1cc2/c(=N/c3ccc(Br)cc3F)nc[nH]c2cc1OCC1CCN(C)CC1 [Vandetanib] | 3.82 | 4.07 | 7.12 | 6.74 | 13 | 0 | 0 | 6.07 | 6.11 | 0.583 | 3.9 | 0 | 3.15 | 8.55 | 5.01 | 6.73 | 14 | 0 | – | – | – | – | – | – | – | – | –
Cc1ccc(NC(=O)c2ccc(CN3CCN(C)CC3)cc2)cc1Nc1nc(-c2cccnc2)cs1 [Masitinib] | 4.09 | 2.27 | 0 | 0 | 0.552 | 0 | 0 | 0 | 0 | 0 | 0 | 0 | 0 | 0 | 0 | 0 | 0 | 0 | – | – | – | – | – | – | – | – | –
O=C(Nc1cccnc1)N1CCC(Cc2cccc(Oc3ccc(C(F)(F)F)cn3)c2)CC1 [PF-3845] | 4.35 | 0 | 1.39 | 0 | 0 | 0 | 0 | 0.908 | 0.694 | 0 | 0.892 | 0 | 0 | 0 | 4.79 | 0 | 0 | 0 | – | – | – | – | – | – | – | – | –
N#Cc1ccc(COC[C@H]2O[C@@H](n3c(NCc4ccc(Cl)c(Cl)c4)nc4c(N)ncnc43)[C@H](O)[C@@H]2O)cc1 | 0 | 1.46 | 0 | 4.35 | 4.85 | 3.59 | 0 | 0 | 1.65 | 0 | 0 | 1.33 | 0 | 0 | 4.23 | 0 | 0 | 8.13 | – | – | – | – | – | – | – | – | –
CO[C@H]1C[C@@H]2CC[C@@H](C)[C@@](O)(O2)C(=O)C(=O)N2CCCC[C@H]2C(=O)O[C@H]([C@H](C)C[C@@H]2CC[C@@H](OP(C)(C)=O)[C@H](OC)C2)CC(=O)[C@H](C)/C=C(\C)[C@@H](O)[C@@H](OC)C(=O)[C@H](C)C[C@H](C)/C=C/C=C/C=C/1C [Ridaforolimus] (100 nM) | – | – | – | – | – | – | – | – | – | – | – | – | – | – | – | – | – | – | 51.6 | 53.1 | 97.3 | 85.5 | 102 | 196 | 116 | 106 | 92.7
COCC1(CO)C(=O)C2CCN1CC2 (configuration not stated) [Prima-1 Met] (10000 nM) | – | – | – | – | – | – | – | – | – | – | – | – | – | – | – | – | – | – | 123 | 62.3 | 106 | 99.3 | 115 | 119 | 117 | 92.1 | 74.2
Oc1ccc2c(c1)CC[C@H](c1ccccc1)[C@@H]2c1ccc(OCCN2CCCC2)cc1 [Lasofoxifene] | 0 | 0 | 0 | 0 | 0 | 0 | 0 | 0 | 0 | 0 | 0 | 0 | 0 | 0 | 0 | 0 | 0 | 0 | – | – | – | – | – | – | – | – | –
O=C(/C=C/c1cccc(S(=O)(=O)Nc2ccccc2)c1)NO [Belinostat] | 22.4 | 19 | 11.8 | 12.5 | 12.2 | 12.3 | 17.1 | 10.6 | 8.06 | 10.3 | 8.1 | 15 | 19 | 12.7 | 8.08 | 12.2 | 11.8 | 14.6 | – | – | – | – | – | – | – | – | –
O=C(/C=C/c1cccc(S(=O)(=O)Nc2ccccc2)c1)NO [Belinostat] (10000 nM) | – | – | – | – | – | – | – | – | – | – | – | – | – | – | – | – | – | – | -5.71 | 112 | 54.6 | 26.6 | -15.2 | 43.3 | 37.3 | -14 | -19.3
O=P1(N(CCCl)CCCl)NCCCO1 (configuration not stated) [Cyclophosphamide] (4000 nM) | – | – | – | – | – | – | – | – | – | – | – | – | – | – | – | – | – | – | 113 | 97.3 | 86.7 | 104 | 112 | 100 | 62.1 | 101 | 100
CC(C)C[C@@H](C(=O)N[C@H](C(=O)OC1CCCC1)c1ccccc1)[C@H](O)C(=O)NO [Tosedostat] (10000 nM) | – | – | – | – | – | – | – | – | – | – | – | – | – | – | – | – | – | – | -8.96 | 70.6 | 86.8 | 54.2 | 48.5 | -9 | 89.8 | 36.2 | -30.8
Cc1[nH]c2ccccc2c1CCNCc1ccc(/C=C/C(=O)NO)cc1 [Panobinostat] (1000 nM) | – | – | – | – | – | – | – | – | – | – | – | – | – | – | – | – | – | – | -36.7 | 86.6 | 34.9 | 4.38 | -9.56 | -0.17 | -12.8 | -30.8 | -26
COc1cc2ncnc(Nc3ccc(F)c(Cl)c3)c2cc1OCCCN1CCOCC1 [Gefitinib] (10000 nM) | – | – | – | – | – | – | – | – | – | – | – | – | – | – | – | – | – | – | 68.6 | 98.4 | 82.9 | 48.3 | 104 | 133 | 102 | 95.4 | 45.8
CN(C)c1nc(N(C)C)nc(N(C)C)n1 [Altretamine] (1000 nM) | – | – | – | – | – | – | – | – | – | – | – | – | – | – | – | – | – | – | 110 | 80.3 | 78 | 101 | 111 | 140 | 98.1 | 104 | 102
C=C1C[C@@H]2[C@H](CC[C@]3(C)C(=O)CC[C@@H]23)[C@@]2(C)C=CC(=O)C=C12 [Exemestane] (10000 nM) | – | – | – | – | – | – | – | – | – | – | – | – | – | – | – | – | – | – | 92.4 | 90 | 111 | 106 | 103 | 103 | 117 | 103 | 71.2
COc1cc2ncnc(Nc3ccc(F)c(Cl)c3)c2cc1OCCCN1CCOCC1 [Gefitinib] | 3.14 and 5.26 | 6.49 and 10.4 | 9.05 and 8.8 | – | 0 | 0 | 2.15 and 4.81 | 0 | 9.52 and 7.51 | 0 | – | 0 | – | 0 | 2.48 and 0.865 | 8.75 and 10.2 | – | 2.82 and 3.43 | – | – | – | – | – | – | – | – | –
COCC[n+]1c2c(n(Cc3cnccn3)c1C)C(=O)c1ccccc1C2=O [YM155] (10000 nM) | – | – | – | – | – | – | – | – | – | – | – | – | – | – | – | – | – | – | 29.1 | 32.2 | -38.3 | 2.48 | 8.9 | -110 | 18.1 | -11.6 | -73.8
CCc1c2c(nc3ccc(OC(=O)N4CCC(N5CCCCC5)CC4)cc13)-c1cc3c(c(=O)n1C2)COC(=O)[C@]3(O)CC [Irinotecan] | – | 6.6 and 2.45 | 0 | – | – | 9.68 and 9.91 | 9.3 and 7.24 | 6.14 and 4.1 | 6.9 and 5.16 | – | 0 | 7.9 and 5.68 | 5.49 and 3.99 | – | – | 2.57 and 1.55 | – | – | – | – | – | – | – | – | – | – | –
Cc1[nH]c2ccccc2c1CCNCc1ccc(/C=C/C(=O)NO)cc1 [Panobinostat] (100 nM) | – | – | – | – | – | – | – | – | – | – | – | – | – | – | – | – | – | – | -11.6 | 10.6 | 99.6 | -4.89 | -3.76 | 82.5 | -15.2 | 28.7 | 10.4
